What follows are molecules tested against T1, Urotensin-2 receptor (Macaca mulatta, UniProt Q8HYC3) (assay: Binding affinity for monkey urotensin-2 receptor).
T1 sequence (Q8HYC3 whole entry): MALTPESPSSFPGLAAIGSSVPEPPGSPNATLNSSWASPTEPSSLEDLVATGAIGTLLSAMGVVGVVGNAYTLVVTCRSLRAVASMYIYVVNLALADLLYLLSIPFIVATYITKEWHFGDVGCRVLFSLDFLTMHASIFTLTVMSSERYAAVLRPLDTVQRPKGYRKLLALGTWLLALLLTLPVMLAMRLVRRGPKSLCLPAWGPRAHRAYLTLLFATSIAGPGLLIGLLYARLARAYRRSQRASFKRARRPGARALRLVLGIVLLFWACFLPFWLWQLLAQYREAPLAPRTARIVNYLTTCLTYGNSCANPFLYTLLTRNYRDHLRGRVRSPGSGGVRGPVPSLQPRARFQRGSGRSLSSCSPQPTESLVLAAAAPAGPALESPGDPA

Question: CN(C)CCCOc1ccc(CN2CC[C@H](NC(=O)c3ccc(Cl)c(Cl)c3)C2)cc1 was tested. Which Ki did it give?
Answer: The Ki was 251 nM.

These molecules were tested against T2, Urotensin-2 receptor (Homo sapiens, UniProt Q9UKP6) (assay: (§1) Inhibition of hU-II-mediated [Ca2+]i mobilization in HEK293 cells expressing human recombinant Urotensin 2 receptor in FLIPR assay).
T2 sequence (Q9UKP6 whole entry): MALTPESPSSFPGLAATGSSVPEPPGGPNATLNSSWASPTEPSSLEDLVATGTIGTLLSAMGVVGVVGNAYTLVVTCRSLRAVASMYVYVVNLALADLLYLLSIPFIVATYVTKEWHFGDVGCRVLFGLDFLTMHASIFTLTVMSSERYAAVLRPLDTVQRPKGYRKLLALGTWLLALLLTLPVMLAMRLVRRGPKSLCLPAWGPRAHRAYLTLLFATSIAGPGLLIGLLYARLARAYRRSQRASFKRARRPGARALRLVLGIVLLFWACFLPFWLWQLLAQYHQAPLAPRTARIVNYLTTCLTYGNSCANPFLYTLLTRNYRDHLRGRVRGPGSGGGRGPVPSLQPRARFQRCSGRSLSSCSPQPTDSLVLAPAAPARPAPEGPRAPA
Format: functional, cell-based

Question: With CC(C)C[C@H](NC(=O)c1cc2ccccc2s1)C(=O)NC1CCN(Cc2ccc(OCCCN(C)C)cc2)C1 (single isomer, unassigned; 2a) as the molecule, how does the IC50 read?
Answer: The IC50 was 631 nM.

Each molecule was assayed against T2, Urotensin-2 receptor (assay: as §1).
Format: cell-based

Question: With CN(C)CCCOc1ccc(CN2CC[C@H](NC(=O)c3ccc(Cl)c(Cl)c3)C2)cc1 as the molecule, how does the IC50 read?
Answer: Its IC50 is 158 nM.

These molecules were tested against T3, Urotensin-2 receptor (Rattus norvegicus, UniProt P49684) (assay: Binding affinity for rat urotensin-2 receptor).
T3 sequence (P49684 whole entry): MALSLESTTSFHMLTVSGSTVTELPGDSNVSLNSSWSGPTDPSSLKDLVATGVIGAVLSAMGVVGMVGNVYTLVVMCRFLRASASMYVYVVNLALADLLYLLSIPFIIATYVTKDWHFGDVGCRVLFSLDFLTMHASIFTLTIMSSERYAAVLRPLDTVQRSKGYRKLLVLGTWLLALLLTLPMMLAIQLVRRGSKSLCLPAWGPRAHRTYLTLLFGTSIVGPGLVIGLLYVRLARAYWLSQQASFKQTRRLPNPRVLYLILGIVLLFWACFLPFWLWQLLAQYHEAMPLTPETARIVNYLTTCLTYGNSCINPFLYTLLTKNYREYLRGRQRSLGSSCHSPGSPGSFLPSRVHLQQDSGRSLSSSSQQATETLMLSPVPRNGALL

Question: Which Ki does the source give for CN(C)CCCOc1ccc(CN2CC[C@H](NC(=O)c3ccc(Cl)c(Cl)c3)C2)cc1 here?
Answer: Its Ki is 3160 nM.

These molecules were tested against T2, Urotensin-2 receptor (assay: Binding affinity using [125I]hU-II radioligand binding assay in HEK293 cell membranes expressing human Urotensin 2 receptor).

Question: For CC(C)C[C@H](NC(=O)Oc1ccccc1)C(=O)N[C@H]1CCN(Cc2ccc(OCCCN(C)C)cc2)C1, which Ki is on record?
Answer: The Ki was 251 nM.

Question: With CC(C)C[C@@H](NC(=O)c1cc2ccccc2o1)C(=O)NC1CCN(Cc2ccc(OCCCN(C)C)cc2)C1 (single isomer, unassigned) as the molecule, how does the Ki read?
Answer: Its Ki is 3160 nM.

Question: With CN(C)CCCOc1ccc(CN2CC[C@H](NC(=O)[C@H](Cc3ccccc3)NC(=O)c3ccc(Cl)c(Cl)c3)C2)cc1 as the molecule, how does the Ki read?
Answer: The Ki was 398 nM.

Question: For CC(C)C[C@H](NC(=O)c1ccc(Cl)c(Cl)c1)C(=O)N[C@H]1CCN(Cc2ccc(OCCCN(C)C)cc2)C1, which Ki is on record?
Answer: The Ki was 126 nM.

Question: With CN(C)CCCOc1ccc(CN2CC[C@H](NC(=O)c3ccc(Br)cc3)C2)cc1 as the molecule, how does the Ki read?
Answer: Its Ki is 316 nM.

Question: With CC(=O)N[C@H]1CCN(Cc2ccc(OCCCN(C)C)cc2)C1 as the molecule, how does the Ki read?
Answer: The Ki was over 10000 nM.

Question: CC(C)C[C@H](NC(=O)c1ccc2ccccc2n1)C(=O)N[C@H]1CCN(Cc2ccc(OCCCN(C)C)cc2)C1 was tested. Which Ki did it give?
Answer: Its Ki is 631 nM.

Question: With CN(C)CCCOc1ccc(CN2CC[C@H](NC(=O)c3ccccc3)C2)cc1 as the molecule, how does the Ki read?
Answer: Its Ki is 2510 nM.

Question: How did the Ki turn out when CC(=O)N[C@@H](CC(C)C)C(=O)N[C@H]1CCN(Cc2ccc(OCCCN(C)C)cc2)C1 was run?
Answer: Its Ki is 2510 nM.

Question: For CC(C)C[C@H](NC(=O)c1ccccc1)C(=O)N[C@H]1CCN(Cc2ccc(OCCCN(C)C)cc2)C1, which Ki is on record?
Answer: Its Ki is 501 nM.

Question: With CN(C)CCCOc1ccc(CN2CC[C@H](NC(=O)c3ccc(-c4ccccc4)cc3)C2)cc1 as the molecule, how does the Ki read?
Answer: Its Ki is over 10000 nM.

Question: Which Ki does the source give for CC(C)C[C@H](NC(=O)c1ccc2c(c1)OCO2)C(=O)N[C@H]1CCN(Cc2ccc(OCCCN(C)C)cc2)C1 here?
Answer: Its Ki is 501 nM.

Question: For CN(C)CCCOc1ccc(CN2CC[C@H](NC(=O)[C@H](CCCCN)NC(=O)c3ccc(Cl)c(Cl)c3)C2)cc1, which Ki is on record?
Answer: The Ki was over 10000 nM.

Question: With CN(C)CCCOc1ccc(CN2CC[C@H](NC(=O)c3ccncc3)C2)cc1 as the molecule, how does the Ki read?
Answer: The Ki was over 10000 nM.

Question: For Cc1ccc(C(=O)N[C@H]2CCN(Cc3ccc(OCCCN(C)C)cc3)C2)cc1C, which Ki is on record?
Answer: The Ki was over 10000 nM.

Question: Which Ki does the source give for CN(C)CCCOc1ccc(CN2CC[C@H](NC(=O)[C@H](CCC(=O)O)NC(=O)c3ccc(Cl)c(Cl)c3)C2)cc1 here?
Answer: Its Ki is over 10000 nM.

Question: CC(C)C[C@H](NC(=O)c1cc2ccccc2s1)C(=O)NC1CCN(Cc2ccc(OCCCN(C)C)cc2)C1 (single isomer, unassigned; 2a) was tested. Which Ki did it give?
Answer: The Ki was 126 nM.

Question: Which Ki does the source give for CN(C)CCCOc1ccc(CN2CC[C@H](NC(=O)c3ccc(Cl)c(Cl)c3)C2)cc1 here?
Answer: Its Ki is 200 nM.

Question: With CC(C)C[C@H](NC(=O)c1cc2ccccc2[nH]1)C(=O)N[C@H]1CCN(Cc2ccc(OCCCN(C)C)cc2)C1 as the molecule, how does the Ki read?
Answer: The Ki was 501 nM.

Question: How did the Ki turn out when CC(C)C[C@H](NC(=O)Cc1ccc2c(c1)OCO2)C(=O)N[C@H]1CCN(Cc2ccc(OCCCN(C)C)cc2)C1 was run?
Answer: The Ki was 398 nM.

Question: CC(C)C[C@H](NC(=O)Nc1ccccc1)C(=O)N[C@H]1CCN(Cc2ccc(OCCCN(C)C)cc2)C1 was tested. Which Ki did it give?
Answer: Its Ki is 1000 nM.

Question: CN(C)CCCOc1ccc(CN2CC[C@H](NC(=O)c3ccc(C(F)(F)F)cc3)C2)cc1 was tested. Which Ki did it give?
Answer: The Ki was over 10000 nM.

Question: For CC(C)C[C@H](NC(=O)c1cc2ccccc2o1)C(=O)NC1CCN(Cc2ccc(OCCCN(C)C)cc2)C1 (single isomer, unassigned; 2c), which Ki is on record?
Answer: Its Ki is 158 nM.

Question: CC(C)[C@H](NC(=O)c1ccc(Cl)c(Cl)c1)C(=O)N[C@H]1CCN(Cc2ccc(OCCCN(C)C)cc2)C1 was tested. Which Ki did it give?
Answer: Its Ki is 794 nM.

Question: CC(C)C[C@H](NC(=O)c1ccco1)C(=O)N[C@H]1CCN(Cc2ccc(OCCCN(C)C)cc2)C1 was tested. Which Ki did it give?
Answer: The Ki was 631 nM.

Question: With Cc1cc(C(=O)N[C@H]2CCN(Cc3ccc(OCCCN(C)C)cc3)C2)ccc1Br as the molecule, how does the Ki read?
Answer: The Ki was 631 nM.

Question: Which Ki does the source give for CN(C)CCCOc1ccc(CN2CC[C@H](NC(=O)c3cc(Cl)cc(Cl)c3)C2)cc1 here?
Answer: The Ki was 2000 nM.

Question: How did the Ki turn out when CN(C)CCCOc1ccc(CN2CC[C@H](NC(=O)c3cc4ccccc4o3)C2)cc1 was run?
Answer: Its Ki is 2510 nM.

Question: How did the Ki turn out when CN(C)CCCOc1ccc(CN2CC[C@H](NC(=O)CNC(=O)c3ccc(Cl)c(Cl)c3)C2)cc1 was run?
Answer: The Ki was over 10000 nM.

Question: Which Ki does the source give for CN(C)CCCOc1ccc(CN2CC[C@H](NC(=O)c3ccc4ccccc4c3)C2)cc1 here?
Answer: The Ki was over 10000 nM.

Question: How did the Ki turn out when CN(C)CCCOc1ccc(CN2CC[C@H](NC(=O)c3ccco3)C2)cc1 was run?
Answer: Its Ki is over 10000 nM.

Question: How did the Ki turn out when Cc1cc(C(=O)N[C@H]2CCN(Cc3ccc(OCCCN(C)C)cc3)C2)ccc1Cl was run?
Answer: Its Ki is 631 nM.

Question: CC(C)C[C@H](NC(=O)c1ccc(Br)cc1)C(=O)N[C@H]1CCN(Cc2ccc(OCCCN(C)C)cc2)C1 was tested. Which Ki did it give?
Answer: Its Ki is 200 nM.

Question: How did the Ki turn out when CC(C)C[C@H](NC(=O)c1ccncc1)C(=O)N[C@H]1CCN(Cc2ccc(OCCCN(C)C)cc2)C1 was run?
Answer: The Ki was 2000 nM.

Question: How did the Ki turn out when CC(C)C[C@H](NC(=O)c1cc2ccccc2o1)C(=O)NC1CCN(Cc2ccc(OCCCN(C)C)cc2)C1 (single isomer, unassigned; 2d) was run?
Answer: The Ki was over 10000 nM.

Question: Which Ki does the source give for CN(C)CCCOc1ccc(CN2CC[C@H](NC(=O)c3cccs3)C2)cc1 here?
Answer: Its Ki is over 10000 nM.

Question: For CC(C)C[C@H](NC(=O)c1cccs1)C(=O)N[C@H]1CCN(Cc2ccc(OCCCN(C)C)cc2)C1, which Ki is on record?
Answer: The Ki was 398 nM.

Question: For COc1ccc(C(=O)N[C@H]2CCN(Cc3ccc(OCCCN(C)C)cc3)C2)cc1OC, which Ki is on record?
Answer: The Ki was over 10000 nM.

Question: CC(C)C[C@H](NC(=O)c1cc2ccccc2s1)C(=O)NC1CCN(Cc2ccc(OCCCN(C)C)cc2)C1 (single isomer, unassigned; 2b) was tested. Which Ki did it give?
Answer: Its Ki is over 10000 nM.

Question: With CN(C)CCCOc1ccc(CN2CC[C@H](NC(=O)c3ccc4c(c3)OCO4)C2)cc1 as the molecule, how does the Ki read?
Answer: The Ki was 2510 nM.

Question: For CN(C)CCCOc1ccc(CN2CC[C@H](NC(=O)c3ccc(C#N)cc3)C2)cc1, which Ki is on record?
Answer: Its Ki is over 10000 nM.

Source: ChEMBL document CHEMBL1140236, “Aminoalkoxybenzyl pyrrolidines as novel human urotensin-II receptor antagonists” (Bioorg Med Chem Lett, 2005)
